Measured values reported in article PMC5281649 (European Journal of Nuclear Medicine and Molecular Imaging, 2016).
Where two headings read alike, the source gives them in different places.

Target: T1, brain MAO-B enzyme (Homo sapiens, UniProt P27338)
T1 sequence (P27338 1-520): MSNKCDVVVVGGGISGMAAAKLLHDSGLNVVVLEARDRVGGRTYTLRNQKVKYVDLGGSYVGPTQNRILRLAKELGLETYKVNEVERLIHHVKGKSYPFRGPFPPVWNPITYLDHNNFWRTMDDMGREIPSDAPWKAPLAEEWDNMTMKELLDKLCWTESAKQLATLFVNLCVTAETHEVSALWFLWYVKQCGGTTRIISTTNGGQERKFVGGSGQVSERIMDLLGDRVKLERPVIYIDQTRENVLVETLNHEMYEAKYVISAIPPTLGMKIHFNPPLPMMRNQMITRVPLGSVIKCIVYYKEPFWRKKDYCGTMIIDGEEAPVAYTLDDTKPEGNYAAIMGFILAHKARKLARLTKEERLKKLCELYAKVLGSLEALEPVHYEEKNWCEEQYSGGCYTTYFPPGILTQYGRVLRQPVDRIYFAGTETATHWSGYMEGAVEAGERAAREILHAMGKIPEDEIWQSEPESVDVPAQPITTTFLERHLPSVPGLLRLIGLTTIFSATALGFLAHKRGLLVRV
Assay: PET with [11C]-L-deprenyl-D2: brain MAO-B inhibition after repeated oral sembragiline
Type: in vivo
Details: mean (range); for receptor occupancy at 0.2 mg / receptor occupancy at 5 mg / receptor occupancy at 1 mg / receptor occupancy at 0.1 mg: human, read-out: Occ (MAO-B occupancy); for receptor occupancy at 0.2 mg: 168 h; for receptor occupancy at 5 mg: 216 h; for receptor occupancy at 1 mg: 336 h; for receptor occupancy at 0.1 mg: 360 h, 5 mg loading day 1 then 0.1 mg q.d. days 2–15
Experimental: The first dose was administered at the study centre under the supervision of study personnel. On subsequent study days, treatment compliance was assured by intake logs and tablet counting.
At baseline, each subject underwent a PET scan using [^11C]-L-deprenyl-D2 to measure MAO-B enzyme activity in the brain prior to their first dose of allocated medication. The second scan was performed at trough concentrations at steady state prior to the last drug administration. Before each scan, a cannula was inserted into a radial artery and another into an antecubital vein. A sterile phosphate buffer (pH = 7.4) containing radioligand was injected as a bolus over several seconds into the cubital vein.
A transmission scan was performed using three rotating ^68Ge rod sources. [^11C]-L-Deprenyl-D2 was injected intravenously as a bolus, and emission data were acquired over 63 min using the ECAT EXACT high-resolution system (Siemens Medical Solutions, Malvern, PA, USA). The injected radioactivity was targeted to approximately 300 MBq. The injected mass of deprenyl was to be ≤100 μg, and ≥50–100-fold lower than the typical administered dose of 5–10 mg deprenyl to patients with Parkinson’s disease. The framing was as follows: 9 frames x 10 s, 2 frames x 15 s, 3 frames x 20 s, 4 frames x 30 s, 4 frames x 60 s, 4 frames x 180 s, 7 frames x 360 s. Images were reconstructed using the standard filtered back-projection, with a 2-mm Hanning filter, a zoom factor of 2.17, and a 128 × 128 matrix, and were corrected for attenuation and scatter. A summation PET image was created for each subject and PET session by averaging across all frames. Time–activity curves were then extracted from selected ROIs.
Arterial blood samples were used for measurement of radioactivity in whole blood and plasma, as well as to determine the parent fraction of the radioligand, using a reversed-phase high-performance liquid chromatography method (Karolinska University Hospital, Solna, Stockholm, Sweden). A catheter was inserted in the radial artery, and arterial blood was collected continuously for 10 min using an automated blood sampling system at a speed of 5 mL/min. Discrete blood samples were drawn approximately 10, 15, 20, 30, 45 and 60 min after each injection of [^11C]-L-deprenyl-D2.
Time–activity data were analysed as previously described. Briefly, [^11C]-L-deprenyl-D2 was quantified by the two-tissue compartment model with three rate constants (K 1, k 2, k 3) using the PMOD 3.3 software package (PMOD Group, Zurich, Switzerland), where the tissue compartments represent the free plus non-specifically bound and specifically bound radiotracer. The outcome measure λk 3 was calculated as (K 1/k 2)*k 3, using a non-linear approach, and was used as an estimate for specific binding to MAO-B that was independent of perfusion. […] This is because λk3 is independent of perfusion and has better reproducibility than k3 alone.

[1] = AD patients, 5 mg q.d. for 6–9 days, hippocampus, N = 2
[2] = AD patients, 5 mg q.d. for 6–9 days, parietal cortex, N = 2
[3] = AD patients, 5 mg q.d. for 6–9 days, striatum, N = 2
[4] = AD patients, 5 mg q.d. for 6–9 days, whole brain, N = 2

[11C]-L-deprenyl-D2 λk3 post-dose [1]: 0.04 (0.03–0.05)
[11C]-L-deprenyl-D2 λk3 post-dose [2]: 0.04 (0.03–0.04)
[11C]-L-deprenyl-D2 λk3 post-dose [3]: 0.05 (0.04–0.05)
[11C]-L-deprenyl-D2 λk3 post-dose [4]: 0.04 (0.04–0.05)
[11C]-L-deprenyl-D2 λk3 post-dose (EC subjects, 1 mg q.d. for 14 days, frontal cortex, N = 3): 0.04 (0.04–0.05)
[11C]-L-deprenyl-D2 λk3 post-dose (EC subjects, 1 mg q.d. for 14 days, hippocampus, N = 3): 0.04 (0.03–0.05)
[11C]-L-deprenyl-D2 λk3 post-dose (EC subjects, 1 mg q.d. for 14 days, parietal cortex, N = 3): 0.04 (0.04–0.05)
[11C]-L-deprenyl-D2 λk3 post-dose (EC subjects, 1 mg q.d. for 14 days, striatum, N = 3): 0.05 (0.04–0.06)
[11C]-L-deprenyl-D2 λk3 post-dose (EC subjects, 1 mg q.d. for 14 days, thalamus, N = 3): 0.05 (0.04–0.05)
[11C]-L-deprenyl-D2 λk3 post-dose (EC subjects, 1 mg q.d. for 14 days, whole brain, N = 3): 0.05 (0.04–0.05)
[11C]-L-deprenyl-D2 λk3 post-dose (EC subjects, 5 mg loading day 1 then 0.2 mg q.d. days 2–7, frontal cortex, N = 3): 0.07 (0.06–0.09)
[11C]-L-deprenyl-D2 λk3 post-dose (EC subjects, 5 mg loading day 1 then 0.2 mg q.d. days 2–7, hippocampus, N = 3): 0.11 (0.09–0.13)
[11C]-L-deprenyl-D2 λk3 post-dose (EC subjects, 5 mg loading day 1 then 0.2 mg q.d. days 2–7, parietal cortex, N = 3): 0.07 (0.06–0.09)
[11C]-L-deprenyl-D2 λk3 post-dose (EC subjects, 5 mg loading day 1 then 0.2 mg q.d. days 2–7, striatum, N = 3): 0.12 (0.09–0.14)
[11C]-L-deprenyl-D2 λk3 post-dose (EC subjects, 5 mg loading day 1 then 0.2 mg q.d. days 2–7, thalamus, N = 3): 0.12 (0.09–0.13)
[11C]-L-deprenyl-D2 λk3 post-dose (EC subjects, 5 mg loading day 1 then 0.2 mg q.d. days 2–7, whole brain, N = 3): 0.08 (0.07–0.10)
receptor occupancy at 0.2 mg (AD patients, 5 mg loading day 1 then 0.2 mg q.d. days 2–7, frontal cortex, N = 3): 70.2%
receptor occupancy at 0.2 mg (AD patients, 5 mg loading day 1 then 0.2 mg q.d. days 2–7, hippocampus, N = 3): 76.1%
receptor occupancy at 0.2 mg (AD patients, 5 mg loading day 1 then 0.2 mg q.d. days 2–7, parietal cortex, N = 3): 68.7%
receptor occupancy at 0.2 mg (AD patients, 5 mg loading day 1 then 0.2 mg q.d. days 2–7, striatum, N = 3): 77.1%
receptor occupancy at 0.2 mg (AD patients, 5 mg loading day 1 then 0.2 mg q.d. days 2–7, thalamus, N = 3): 76.8%
receptor occupancy at 0.2 mg (AD patients, 5 mg loading day 1 then 0.2 mg q.d. days 2–7, whole brain, N = 3): 68.9%
receptor occupancy at 5 mg (AD patients, 5 mg q.d. for 6–9 days, frontal cortex, N = 2): 77.8%
receptor occupancy at 5 mg [1]: 83.3%
receptor occupancy at 5 mg [2]: 78.1%
receptor occupancy at 5 mg [3]: 84.8%
receptor occupancy at 5 mg (AD patients, 5 mg q.d. for 6–9 days, thalamus, N = 2): 86.3%
receptor occupancy at 5 mg [4]: 76.3%
receptor occupancy at 1 mg (AD patients, 1 mg q.d. for 14 days, frontal cortex, N = 2): 79.7%
receptor occupancy at 1 mg (AD patients, 1 mg q.d. for 14 days, hippocampus, N = 2): 79.2%
receptor occupancy at 1 mg (AD patients, 1 mg q.d. for 14 days, parietal cortex, N = 2): 78%
receptor occupancy at 1 mg (AD patients, 1 mg q.d. for 14 days, striatum, N = 2): 85%
receptor occupancy at 1 mg (AD patients, 1 mg q.d. for 14 days, thalamus, N = 2): 86%
receptor occupancy at 1 mg (AD patients, 1 mg q.d. for 14 days, whole brain, N = 2): 75.5%
receptor occupancy at 0.1 mg (AD patients, frontal cortex, N = 2): 56.9%
receptor occupancy at 0.1 mg (AD patients, hippocampus, N = 2): 53.8%
receptor occupancy at 0.1 mg (AD patients, parietal cortex, N = 2): 55.6%
receptor occupancy at 0.1 mg (AD patients, striatum, N = 2): 59.9%
receptor occupancy at 0.1 mg (AD patients, thalamus, N = 2): 60.4%
receptor occupancy at 0.1 mg (AD patients, whole brain, N = 2): 55.2%
Compound: CC(=O)N[C@H]1CC(=O)N(c2ccc(OCc3cccc(F)c3)cc2)C1 [sembragiline]
